In US7094801B2, “Chalcone derivatives and their use to treat diseases” (Atherogenics, Inc., priority 2001, dated 2006) one finds IC50 and melting point data, which are given here for 31 compounds.

Structures are written as SMILES. pIC50: −log10 of the molar value. Structures can show the parent of a compound that is named as a salt.

The subject of data set [1] is VCAM-1. Briefly: In Vitro VCAM-1 Assay (TNF-α stimulated HAEC or HPAEC, cell ELISA). Conditions: Homo sapiens, 16 h, TNF-α (1 ng/ml) stimulated HAEC or HPAEC, approximately 16 hours. Type of data set: cell-based, human. On the procedure: Cell Culture and compound dosing: Cultured primary human aortic (HAEC) or pulmonary (HPAEC) endothelial cells were obtained from Clonetics, Inc., and were used below passage 9. Cells were seeded in 96 well plates such that they would reach 90–95% confluency by the following day. On the following day the cells were stimulated with TNF-α (1 ng/ml) in the presence or absence of compounds dissolved in DMSO such that the final concentration of DMSO is 0.25% or less. To establish a dose curve for each compound, four concentrations in 2- to 5-fold increments were used. Cells were exposed to TNF-α and compounds for approximately 16 hours. The next day the cells were examined under microscope to score for visual signs of toxicity or cell stress.
Following 16 hr exposure to TNF-α and compound the media was discarded and the cells were washed once with Hanks Balanced Salt Solution (HBSS)/Phosphate buffered saline (PBS) (1:1). Primary antibodies against VCAM-1 (0.25 μg/ml in HBSS/PBS+5% FBS) were added and incubated for 30–60 minutes at 37° C. Cells were washed with HBSS/PBS three times, and secondary antibody Horse Radish Peroxidase (HRP)-conjugated goat anti-mouse IgG (1:500 in HBSS/PBS+5% FBS) were added and incubated for 30 minutes at 37° C. Cells were washed with HBSS/PBS four time and TMB substrate were added and incubated at room temperature in the dark until there was adequate development of blue color. The length of time of incubation was typically 5–15 minutes. 2N sulfuric acid was added to stop the color development and the data was collected by reading the absorbance on a BioRad ELISA plate reader at OD 450 nm. The results are expressed as IC50 values (the concentration (micromolar) of compound required to inhibit 50% of the maximal response of the control sample stimulated by TNF-α only).
(An ELISA detects its analyte on a solid surface through an enzyme-linked reagent.)

In general, pIC50 refers to −log10 of the IC50, conventionally taken in molar units. Read a high pIC50 as a small IC50. Usually melting point stands for the temperature of the solid-liquid transition.

As to `COC(=O)c1ccc(-c2cc(/C=C/C(=O)c3ccc(C(=O)O)cc3)c(OC)cc2OC)s1` [Example 51, 5-{5-[3-(4-Carboxy-phenyl)-3-oxo-E-propenyl]-2,4-dimethoxy-phenyl}-thiophene-2-carboxylic acid methyl ester], the pIC50 in data set [1] is more than 5.30.
The compound `COc1cc(OC)c(-c2cccs2)cc1/C=C/C(=O)c1ccc(C(C)(C)C(=O)O)cc1` [Example 77, 2-{4-[3E-(2,4-Dimethoxy-5-thiophen-2-yl-phenyl)-acryloyl]-phenyl}-2-methyl-propionic acid] gave a pIC50 in data set [1] of more than 5.30.
Consider `COc1cc(OC(C)(C)C(=O)O)c(/C=C/C(=O)c2ccc(S(N)(=O)=O)cc2)cc1-c1cccs1` [Example 82, 2-{5-Methoxy-2-[3-oxo-3-(4-aminosulfonyl-phenyl)-E-propenyl]-4-thiophen-2-yl-phenoxy}-2-methyl-propionic acid], for which the melting point lay within 164 to 165 °C.
Compound `CCOC(=O)C1(C(=O)OCC)Oc2ccc(C(=O)/C=C/c3cc(OC)c(OC)c(-c4cccs4)c3)cc2O1` [Example 103, 5-[3E-(3,4-Dimethoxy-5-thiophen-2-yl-phenyl)-acryloyl]-benzo[1,3]dioxole-2,2-dicarboxylic acid, diethyl ester] had a pIC50 in data set [1] of less than 5.00.
On the same count and under the same terms, then `COc1cc(OC)c(-c2cc3ccccc3s2)cc1/C=C/C(=O)c1ccc(C(=O)O)cc1` [Example 120, 4-[3E-(5-Benzo[b]thien-2-yl-2,4-dimethoxyphenyl)-acryloyl]-benzoic acid, N-methyl-D-glucamine salt], with more than 6.00.
On to `COc1cc(OCCC2CCCN2C)c(/C=C/C(=O)c2ccc(C(=O)O)cc2)cc1-c1cccs1.Cl` (stereo not shown) [Example 73, 4-(3E-{4-Methoxy-2-[2-(1-methyl-pyrrolidin-2-yl)-ethoxy]-5-thiophen-2-yl-phenyl}-acryloyl)-benzoic acid, hydrochloride], for which the melting point was in the range of 206 to 208 °C.
`COc1cc(OC)c(-c2cc3ccccc3s2)cc1/C=C/C(=O)c1ccc(SCC(=O)O)cc1` [Example 23, {4-[3E-(5-Benzo[b]thiophen-2-yl-2,4-dimethoxy-phenyl)-acryloyl]-phenylthio}-acetic acid] showed a pIC50 in data set [1] of more than 6.00.
With `COc1cc(OC)c(-c2cccnc2)cc1/C=C/C(=O)c1ccc(S(N)(=O)=O)cc1` [Example 104, 4-[3E-(2,4-Dimethoxy-5-pyridin-3-yl-phenyl)-acryloyl]-benzenesulfonamide], the melting point is 253 to 255 °C.
Regarding `COc1cc(OCC(=O)N2CCOCC2)c(/C=C/C(=O)c2ccc(C(=O)O)cc2)cc1-c1cccs1` [Example 72, 4-{3E-[4-Methoxy-2-(2-morpholin-4-yl-2-oxo-ethoxy)-5-thiophen-2-yl-phenyl]-acryloyl}-benzoic acid], the melting point is 231 to 233 °C.
`COc1cc(OCC(N)=O)c(/C=C/C(=O)c2ccc(C(=O)O)cc2)cc1-c1cccs1` [Example 71, 4-[3E-(2-Carbamoylmethoxy-4-methoxy-5-thiophen-2-yl-phenyl)-acryloyl]-benzoic acid]: the melting point is 235 °C (dec.).
In turn, `O=C([O-])c1ccc(/C=C/C(=O)c2ccc(-c3cccs3)cc2)cc1.[Na+]` [Example 17, 4-[3-{4-(thien-2-yl)-phenyl}-3-oxo-E-propenyl]-benzoic acid, sodium salt] registered a melting point of more than 260 °C.
The compound `COc1cc(/C=C/C(=O)c2ccc3c(ccn3C)c2)cc(-c2cccs2)c1OC` [Example 28, 3E-(3,4-Dimethoxy-5-thiophen-2-yl-phenyl)-1-(1-methyl-1H-indol-5-yl)-propenone] had a pIC50 in data set [1] of more than 5.30.
Compound `COc1cc(OC)c(-c2c[nH]c(C3CC3)n2)cc1/C=C/C(=O)c1ccc(C(=O)O)cc1.Cl` [Example 105, 4-{3E-[5-(2-Cyclopropyl-1H-imidazol-4-yl)-2,4-dimethoxy-phenyl]-acryloyl}-benzoic acid, hydrochloride] registered a melting point of more than 240 °C.
Still for that read-out and setting: then `COc1cc(OC)c(-c2cc3ccccc3s2)cc1/C=C/C(=O)c1ccc(S(=O)(=O)c2ccccc2)cc1` [Example 107, 1-(4-Benzenesulfonyl-phenyl)-3E-(5-benzo[b]thiophen-2-yl-2,4-dimethoxy-phenyl)-propenone], with 127 to 128 °C; and `COc1cc(OCCN2CCOCC2)c(/C=C/C(=O)c2ccc(S(N)(=O)=O)cc2)cc1-c1cccs1.Cl`, with 235 °C (dec.).
Same read-out and setting: in the case of `COc1cc(OC)c(-c2nncn2CC(C)C)cc1/C=C/C(=O)c1ccc(S(N)(=O)=O)cc1` [Example 109, 4-{3E-[5-(4-Isobutyl-4H-[1,2,4]triazol-3-yl)-2,4-dimethoxy-phenyl]-acryloyl}-benzenesulfonamide] it was more than 240 °C.
Take `COc1cc(OC)c(-c2cc3ccccc3s2)cc1/C=C/C(=O)c1ccc(C(=O)NCCN2CCOCC2)cc1` [Example 90, 4-[3E-(5-Benzo[b]thiophen-2-yl-2,4-dimethoxy-phenyl)-acryloyl]-N-(2-morpholin-4-yl-ethyl)-benzamide]: the pIC50 in data set [1] was more than 6.00.
Compound `NS(=O)(=O)c1ccc(C(=O)/C=C/c2cccc(C3CC=CO3)c2)cc1` (stereo not shown) [Example 119, 4-{3-[3E-(2,3-Dihydro-furan-2-yl)-phenyl]-acryloyl}-benzenesulfonamide] had a melting point of 152 to 153 °C.
Turning to `COc1cc(/C=C/C(=O)c2ccc(N(C)S(C)(=O)=O)cc2)cc(-c2cccs2)c1OC` [Example 98, N-{4-[3E-(3,4-Dimethoxy-5-thiophen-2-yl-phenyl)-acryloyl]-phenyl}-N-methyl-methanesulfonamide], in data set [1], the pIC50 is more than 5.30.
Still for that read-out and setting: then `COc1cc(OC)c(-c2cc3ccccc3s2)cc1/C=C\C(=O)c1ccc(C(=O)O)cc1` [Example 79, 4-[3Z-(5-Benzo[b]thien-2-yl-2,4-dimethoxyphenyl)-acryloyl]-benzoic acid], with more than 6.00.
As to `O=C(O)c1ccc(C(=O)/C=C/c2cc(-c3cccs3)ccc2N2CCCC2)cc1` [Example 63, 4-[3E-(2-Pyrrolidin-1-yl-5-thiophen-2-yl-phenyl)-acryloyl]-benzoic acid], the negative logarithm of the IC50 (pIC50) in data set [1] was more than 5.00.
`COc1cc(OC)c(-c2nc3cccnc3[nH]2)cc1/C=C/C(=O)c1ccc(S(N)(=O)=O)cc1` [Example 112, 4-{3E-[5-(3H-Imidazo[4,5-b]pyridin-2-yl)-2,4-dimethoxy-phenyl]-acryloyl}-benzenesulfonamide] came in with a melting point of more than 260 °C.
The same measure, in the same setting: in the case of `COc1cc(OC)c(C2C=CCO2)cc1/C=C/C(=O)c1ccc(S(N)(=O)=O)cc1` (stereo not shown) [Example 121, 4-{3E-[5-(2,5-Dihydro-furan-2-yl)-2,4-dimethoxy-phenyl]-acryloyl}-benzenesulfonamide] it was 194 to 195 °C.
On the same count and under the same terms, in the case of `O=C(O)CNC(=O)Nc1ccc(C(=O)/C=C/c2ccc(-c3cccs3)cc2)cc1` [Example 97, 4(3E-{4-[3-(4-Thiophen-2-yl-phenyl)-acryloyl]-phenyl}-ureido)-acetic acid] it was 222 to 225 °C.
`COc1cc(OC)c(-c2ccc(C(=O)O)s2)cc1/C=C/C(=O)c1ccc(C(=O)O)cc1` [Example 52, 5-{5-[3-(4-Carboxy-phenyl)-3-oxo-E-propenyl]-2,4-dimethoxy-phenyl}-thiophene-2-carboxylic acid] had a pIC50 in data set [1] of less than 5.00.
`COc1cc(OC)c(-c2cc3ccccc3s2)cc1/C=C/C(=O)c1ccc(C(=O)O)cc1` (as salt: salt) [Example 120, 4-[3E-(5-Benzo[b]thien-2-yl-2,4-dimethoxyphenyl)-acryloyl]-benzoic acid, N-methyl-D-glucamine salt]: the melting point is 75 to 80 °C.
Still for that read-out and setting: in the case of `COc1cc(OC)c(-c2cc3ccccc3n2C)cc1/C=C/C(=O)c1ccc(C(=O)O)cc1` [Example 116, 4-{3E-[2,4-Dimethoxy-5-(1-methyl-1H-indol-2-yl)-phenyl]-acryloyl}-benzoic acid] it was 157 to 160 °C; in that of `COc1cc(OCc2nnn[nH]2)c(/C=C/C(=O)c2ccc(S(N)(=O)=O)cc2)cc1-c1cccs1` [Example 89, 4-{3E-[4-Methoxy-2-(1H-tetrazol-5-ylmethoxy)-5-thiophen-2-yl-phenyl]-acryloyl}-benzenesulfonamide], 163 to 164 °C (dec.).
On the same count and under the same terms, in the case of `COc1cc(OC(C)(C)C(=O)O)c(/C=C/C(=O)c2ccc(C(=O)O)cc2)cc1-c1cccs1` [Example 59, 4-{3E-[2-(1-Carboxy-1-methyl-ethoxy)-4-methoxy-5-thiophen-2-yl-phenyl]-acryloyl}-benzoic acid] it was 223 to 225 °C.
Still for that read-out and setting: then `COc1cc(OC)c(-c2cc3ccccc3s2)cc1/C=C/C(=O)c1ccc(C(=O)[O-])cc1.[Na+]` [Example 56, 4-[3E-(5-Benzo[b]thiophen-2-yl-2,4-dimethoxy-phenyl)-acryloyl]-benzoic acid, sodium salt], with more than 235 °C.
With `COc1cc(Oc2cccc(C)n2)c(/C=C/C(=O)c2ccc(S(N)(=O)=O)cc2)cc1-c1cccs1` [Example 122, 4-{3E-[4-Methoxy-2-(6-methyl-pyridin-2-yloxy)-5-thiophen-2-yl-phenyl]-acryloyl}-benzenesulfonamide], the melting point lay in the range of 164 to 165 °C.
